Experimental data from patent US10072021B2, “Compound for inhibiting binding between DX2 protein and P14/ARF protein, and pharmaceutical composition for treating or preventing cancer disease containing same as effective ingredient” (PUSAN NATIONAL UNIVERSITY INDUSTRY-UNIVERSITY COOPERATION …, priority 2014, dated 2018).
“Also recorded” adds a separate entry of the source.

Legend:
[1] = target: T1, DX2-p14/ARF binding (His-DX2, GST-p14/ARF) (Homo sapiens, UniProt Q13155); assay: ELISA-based screening for inhibitors of DX2-p14/ARF binding; settings: ELISA values at 450 nm
T1 construct: made in house; host or cells: E. coli BL21(DE3) (stated for the GST fusion)
T1 sequence (Q13155 1-251 isoform Q13155-2): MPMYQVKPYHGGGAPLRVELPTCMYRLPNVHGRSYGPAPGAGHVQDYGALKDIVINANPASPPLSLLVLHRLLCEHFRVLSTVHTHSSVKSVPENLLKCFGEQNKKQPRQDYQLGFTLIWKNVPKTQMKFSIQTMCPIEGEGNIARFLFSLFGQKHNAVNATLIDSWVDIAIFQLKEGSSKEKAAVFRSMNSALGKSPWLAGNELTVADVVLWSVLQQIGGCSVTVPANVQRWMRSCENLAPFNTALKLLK
Experimental: In detail, referring to drawings, the compound according to an embodiment of the present invention which is a specific binding inhibitor of DX2 and p14/ARF was screened by using an ELISA-based screening method of FIG. 1. Based on the screening reaction system, increases in ELISA values with increasing concentrations of p14/ARF were measured. […] Thus, by using the ELISA-based screening method, compounds that are specific binding inhibitors of DX2 and p14/ARF were primarily screened.
That is, 0.5% His-DX2 recombinant proteins were immobilized on a 96-well plate with paraformaldehyde (PFA). After performing drying and cleaning processes, GST-p14/ARF proteins were allowed to react with a random compound (final concentration: 0.1 mM). After 1 hour, the plate was washed using TBS-T, and then, incubated with anti-GST antibodies (1:10,000, 30 minutes) and anti-mouse-IgG-HRP (1:50,000, 1 hour). After performing a washing process twice, the plate was incubated with 3,3′,5,5′-tetramethylbenzidine (TMB) solution (Calbiochem) and stop solution (1N H2SO4) for a reaction. Afterwards, by using an ELISA reader, values were measured at 450 nm, thereby selecting candidate drugs as DX2-p14/ARF binding inhibitors. […]

[2] = system: p53; assay: p53 induction in primary tumor cells (western blotting); format: cell-based; settings: combinational treatment with Adriamycin and SLCB050, primary tumor cells from DX2 or DK mouse, FIG. 9C
Experimental: To carry out western blot analysis, proteins were thermally inactivated in RIPA buffer (heat treatment for 7 minutes at a temperature of 95° C.), and then, the resulting proteins were applied to SDS-PAGE, followed by western blot analysis according to a known method in the art (J. Clin. Oncol. 16, 1207-1217, 1998; Nat. Rev. Cancer 2, 489-501, 2002). Antibodies used herein, e.g., HA (sc-7392), His (sc-8036), GFP (sc-9996), GST (sc-138), Actin (se-1616), and p19/ARF (sc-32748), were purchased from Santa Cruz Biochnology, anti-p14/ARF (MAB3782) was purchased from Millipore, and FLAG-M2 and anti-C-Myc (M5546) were purchased from Sigma Aldrich. In addition, anti-AIMP2 was provided from Professor. Kim, Sung-Hoon (Seoul Nat. Univ.).

[3] = system: H128 cells (SCLC cell line); assay: Soft agar colony formation assay in H128 cells; format: cell-based, human; settings: 48 hours, trypan blue staining, FIG. 6
Experimental: H128 cells which are SCLC cell lines were seeded in soft agar plates and allowed to react with SLCB050 for 48 hours, and then, the cells were examined after staining the cells with trypan blue.

[4] = system: H69 and H322 cells; assay: Sensitivity of lung cancer cell lines to combinational treatment with Adriamycin and SLCB050; format: cell-based, human; settings: combinational treatment with Adriamycin, FIG. 8C
Experimental: (§1) By MTT assay, anticancer effects were confirmed based on viability of tumor cells. That is, cells were incubated in 0.5 mg/ml of MTT solution for 4 hours at a temperature of 37° C. for a reaction, and then, formazen products formed therefrom were dissolved in dimethyl sulfoxide (DMSO). Then, absorbance thereof was measured at 540 nm by using a spectrometer.

[5] = system: H128 cells (SCLC cell line); assay: MTT viability of H128 cells; format: cell-based, human; settings: MTT assay, FIG. 7
Experimental: as §1

[6] = system: p53-AIMP2 or DX2 binding; assay: GST pull-down assay, selectivity: p53-AIMP2 or DX2 binding; settings: FIG. 3B
Description: (§2) Through GST pull-down assays, more specific binding inhibitors were selected among the previously screened candidate drugs as DX2-p14/ARF binding inhibitors. That is, a p14/ARF fragment (full-length) was ligated into EcoRI and Hind II sites of pGEX-TEV vector, which is a modified vector by adding a TEV protease cleavage site to pGEX-4T1. The recombinant proteins were then expressed in E. coli strain BL21(DE3) as GST-fusion proteins. The proteins were purified by glutathione affinity chromatography.
(§3) To address direct binding between the two proteins, agarose-bead conjugated GST (negative control) or GST-target protein was incubated with cell lysate or recombinant protein in radioimmunoprecipitation assay (RIPA) buffer (NaCl, 25 mM Tris-Cl, 1% NP-40, 1% sodium deoxycholate, 0.1% SDS, protease inhibitor mixture) for 1 hour at a temperature of 4° C. for a reaction.

[7] = target: T2, p53-p14/ARF interaction (Homo sapiens, UniProt P04637+Q8N726); assay: GST pull-down assay, selectivity: p53-p14/ARF interaction; format: binding; settings: FIG. 3D, 3E
T2 construct: a p14/ARF fragment (full-length) was ligated into EcoRI and Hind II sites of pGEX-TEV vector; made in house; host or cells: E. coli BL21(DE3) for GST-p14/ARF
T2 sequence (Q8N726 whole entry, the tested form may be a part): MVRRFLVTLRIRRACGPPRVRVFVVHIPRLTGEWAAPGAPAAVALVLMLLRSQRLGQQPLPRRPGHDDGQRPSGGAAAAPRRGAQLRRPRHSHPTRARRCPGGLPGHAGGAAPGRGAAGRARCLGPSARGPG
T2 sequence (P04637 whole entry, the tested form may be a part): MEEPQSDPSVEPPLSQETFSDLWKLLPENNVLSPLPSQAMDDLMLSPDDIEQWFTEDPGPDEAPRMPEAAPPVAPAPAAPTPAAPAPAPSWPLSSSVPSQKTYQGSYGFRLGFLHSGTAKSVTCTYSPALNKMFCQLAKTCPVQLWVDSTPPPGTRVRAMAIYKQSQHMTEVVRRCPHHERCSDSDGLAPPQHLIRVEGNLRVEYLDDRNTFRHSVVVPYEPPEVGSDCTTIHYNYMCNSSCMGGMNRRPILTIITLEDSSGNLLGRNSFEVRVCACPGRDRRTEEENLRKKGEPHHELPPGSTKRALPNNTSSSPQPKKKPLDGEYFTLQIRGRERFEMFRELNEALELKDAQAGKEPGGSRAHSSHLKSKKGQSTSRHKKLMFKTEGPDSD
Description: as §2, §3

[8] = system: DX2 and p14/ARF; assay: Localization and levels of DX2 and p14/ARF in cells after treatment (western blot); format: cell-based, human
[9] = target: T3, DX2-AIMP2 binding (Homo sapiens, UniProt Q13155); assay: Protein binding assay using His-DX2 protein; settings: FIG. 2C
T3 sequence (Q13155 1-251 isoform Q13155-2): T1 sequence (Q13155 1-251 isoform Q13155-2)
Experimental: Here, contransfected 293 cells were allowed to react with MG132 before immunoprecipitation analysis to prevent reduction of two proteins, and after performing SLCB050 treatment (10 μM, 6 hours), immunoprecipitation assay was performed on the cells by using Myc antibodies (DX2).
as §3

SMILES: CC1(C)Oc2cc3oc(=O)ccc3cc2C[C@@H]1OC(=O)/C=C/c1ccco1 [SLCB050, (7S)-(+)-3-(2-Furanyl)-acrylic acid, 8,8-dimethyl-2-oxo-6,7-dihydro-2H,8H-pyrano[3,2-g]chromen-7-yl-ester]
- ELISA reaction of DX2-p14/ARF binding [1]: considerably reduced
- p53 induction in primary tumor cells [2]: induced p53 synergistically
- number of colonies / H128 cell growth in soft agar [3]: completely suppressed the H128 cell growth; also recorded: reduced the number of colonies in a dose-dependent manner
- sensitivity to Adriamycin in SCLC cell line H69 [4]: sensitivity to Adriamycin improved
- sensitivity to Adriamycin in p14/ARF-deficient H322 cells [4]: did not show improved sensitivity
- viability of H128 cells [5]: reduced the viability of H128 cells in a dose-dependent manner
- inhibition of p53-AIMP2 or DX2 binding [6]: not on p53-AIMP2 or DX2 binding
- effect on interaction of p53-p14/ARF [7]: did not affect the interaction of p53-p14/ARF
- localization of DX2 and p14/ARF ([8]; 10 μM, 6 hours, nucleoplasm, FIG. 4B): DX2 was decreased and p14/ARF was increased in the nucleoplasm
- DX2 and p14/ARF levels ([8]; NSCLC cell line H1299 and SCLC cell line H69, FIG. 4C): decreases DX2, but increases p14/ARF
- DX2 levels in p14/ARF-deficient cells ([8]; p14/ARF-deficient H322 cells (H322, H460, A549), FIG. 4D): reduction of DX2; also recorded: DX2 levels decreased considerably
- binding between DX2 and AIMP2 [9]: binding between DX2 and AIMP2 was reduced
